# Data from patent US20180162845A1, “ENHANCER OF ZESTE HOMOLOG 2 INHIBITORS” (GLAXOSMITHKLINE INTELLECTUAL PROPERTY (NO.2) LIMITED, priority 2015, published 2018).
# pIC50: −log10 of the molar value.
# Molecular target: T1, EZH2 within the PRC2 complex (Homo sapiens, UniProt Q15910)
# T1 construct: FLAG; made in house; host or cells: Sf9 cells
# Assay: EZH2 methyltransferase scintillation proximity assay (SPA)
# Type: biochemical
# Settings: Human PRC2 5 member complex (FLAG-EZH2, EED, SUZ12, RbAp48, AEBP2), biotinylated histone H3K27 peptide, 3H-SAM, 60 min room temperature; ≤10 nM approaches limit of detection
# Description: Compounds contained herein were evaluated for their ability to inhibit the methyltransferase activity of EZH2 within the PRC2 complex. Human PRC2 complex was prepared by co-expressing each of the 5 member proteins (FLAG-EZH2, EED, SUZ12, RbAp48, AEBP2) in Sf9 cells followed by co-purification. Enzyme activity was measured in a scintillation proximity assay (SPA) where a tritiated methyl group is transferred from 3H-SAM to a lysine residue on a biotinylated, unmethylated peptide substrate derived from histone H3. The peptides were captured on streptavidin-coated SPA beads and the resulting signal was read on a ViewLux plate reader.
# • 1. Prepare 10 mM stock of compounds from solid in 100% DMSO. • 2. Set up an 11-point serial dilution (1:4 dilution, top concentration 10 mM) in 100% DMSO for each test compound in a 384 well plate leaving columns 6 and 18 for DMSO controls. • 3. Dispense 10 nL of compound from the dilution plate into reaction plates (Corning, 384-well polystyrene NBS, Cat# 3673).
# • 1. 1× Base Buffer, 50 mM Tris-HCl, pH 8, 2 mM MgCl2: Per 1 L of base buffer, combine 1 M Tris-HCl, pH 8 (50 mL), 1 M MgCl2 (2 mL), and distilled water (948 mL). • 2. 1× Assay Buffer: Per 10 mL of 1× Assay Buffer, combine 1× Base Buffer (9.96 mL), 1 M DTT (40 uL), and 10% Tween-20 (1 uL) to provide a final concentration of 50 mM Tris-HCl, pH 8, 2 mM MgCl2, 4 mM DTT, 0.001% Tween-20. • 3. 2× Enzyme Solution: Per 10 mL of 2× Enzyme Solution, combine 1× Assay Buffer (9.99 mL) and 3.24 uM EZH2 5 member complex (6.17 uL) to provide a final enzyme concentration of 1 nM. • 4. SPA Bead Solution: Per 1 mL of SPA Bead Solution, combine Streptavidin coated SPA beads (PerkinElmer, Cat #RPNQ0261, 40 mg) and 1× Assay Buffer (1 mL) to provide a working concentration of 40 mg/mL. • 5. 2× Substrate Solution: Per 10 mL of 2× Substrate Solution, combine 40 mg/mL SPA Bead Solution (375 uL), 1 mM biotinylated histone H3K27 peptide (200 uL), 12.5 uM 3H-SAM (240 uL; 1 mCi/mL), 1 mM cold SAM (57 uL), and 1× Assay Buffer (9.13 mL) to provide a final concentration of 0.75 mg/mL SPA Bead Solution, 10 uM biotinylated histone H3K27 peptide, 0.15 uM 3H-SAM (˜12 uCi/mL 3H-SAM), and 2.85 uM cold SAM. • 6. 2.67× Quench Solution: Per 10 mL of 2.67× Quench Solution, combine 1 Assay Buffer (9.73 mL) and 10 mM cold SAM (267 uL) to provide a final concentration of 100 uM cold SAM.
# • 1. Stamp 10 nL/well of 1000× Compound to test wells (as noted above). • 2. Stamp 10 nL/well of 100% DMSO to columns 6 & 18 (high and low controls, respectively).
# • 1. Dispense 5 uL/well of 1× Assay Buffer to column 18 (low control reactions). • 2. Dispense 5 uL/well of 2× Substrate Solution to columns 1-24 (note: substrate solution should be mixed to ensure homogeneous bead suspension before dispensing into matrix reservoir). • 3. Dispense 5 uL/well of 2× Enzyme Solution to columns 1-17, 19-24. • 4. Incubate the reaction for 60 min at room temperature.
# • 1. Dispense 6 uL/well of the 2.67× Quench Solution to columns 1-24. • 2. Seal assay plates and spin for ˜1 min at 500 rpm. • 3. Dark adapt plates in the ViewLux instrument for 15-60 min. Read plates • 1. Read the assay plates on the Viewlux Plate Reader utilizing the 613 nm emission filter or clear filter (300 s exposure). • Reagent addition can be done manually or with automated liquid handler.
# Percent inhibition was calculated relative to the DMSO control for each compound concentration and the resulting values were fit using standard IC50 fitting parameters within the ABASE data fitting software package.
# T1 sequence (Q15910 whole entry): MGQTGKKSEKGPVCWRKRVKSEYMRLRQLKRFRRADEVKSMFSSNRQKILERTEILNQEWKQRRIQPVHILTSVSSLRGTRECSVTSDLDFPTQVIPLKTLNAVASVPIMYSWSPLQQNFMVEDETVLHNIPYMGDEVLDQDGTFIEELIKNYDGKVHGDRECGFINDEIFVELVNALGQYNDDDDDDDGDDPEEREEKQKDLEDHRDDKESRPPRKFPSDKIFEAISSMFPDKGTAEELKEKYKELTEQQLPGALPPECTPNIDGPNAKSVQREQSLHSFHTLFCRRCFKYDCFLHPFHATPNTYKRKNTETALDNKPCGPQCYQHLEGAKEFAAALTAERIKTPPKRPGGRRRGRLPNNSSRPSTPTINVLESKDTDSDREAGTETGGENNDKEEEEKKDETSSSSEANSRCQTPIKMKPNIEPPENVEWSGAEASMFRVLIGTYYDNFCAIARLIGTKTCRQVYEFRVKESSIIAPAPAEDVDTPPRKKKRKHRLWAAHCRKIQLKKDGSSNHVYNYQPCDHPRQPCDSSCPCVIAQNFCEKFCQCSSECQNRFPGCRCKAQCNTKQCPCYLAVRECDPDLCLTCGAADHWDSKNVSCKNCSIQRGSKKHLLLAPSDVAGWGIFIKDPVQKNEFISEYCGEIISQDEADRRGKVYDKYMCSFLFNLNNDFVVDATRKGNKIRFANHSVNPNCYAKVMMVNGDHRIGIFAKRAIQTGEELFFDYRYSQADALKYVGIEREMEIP
# T1 sequence (O75530 whole entry partner): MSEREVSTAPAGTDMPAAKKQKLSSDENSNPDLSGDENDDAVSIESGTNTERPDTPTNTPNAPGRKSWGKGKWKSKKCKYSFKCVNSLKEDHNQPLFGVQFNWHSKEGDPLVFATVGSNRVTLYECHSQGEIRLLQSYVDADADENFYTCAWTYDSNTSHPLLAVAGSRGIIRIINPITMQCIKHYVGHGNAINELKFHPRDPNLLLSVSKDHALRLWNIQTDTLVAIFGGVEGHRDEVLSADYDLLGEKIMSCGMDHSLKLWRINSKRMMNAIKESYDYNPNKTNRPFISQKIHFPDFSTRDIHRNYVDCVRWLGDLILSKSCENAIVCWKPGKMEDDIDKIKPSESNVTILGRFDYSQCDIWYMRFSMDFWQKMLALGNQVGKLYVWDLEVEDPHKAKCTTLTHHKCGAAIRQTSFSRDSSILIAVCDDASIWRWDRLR
# T1 sequence (Q15022 whole entry partner): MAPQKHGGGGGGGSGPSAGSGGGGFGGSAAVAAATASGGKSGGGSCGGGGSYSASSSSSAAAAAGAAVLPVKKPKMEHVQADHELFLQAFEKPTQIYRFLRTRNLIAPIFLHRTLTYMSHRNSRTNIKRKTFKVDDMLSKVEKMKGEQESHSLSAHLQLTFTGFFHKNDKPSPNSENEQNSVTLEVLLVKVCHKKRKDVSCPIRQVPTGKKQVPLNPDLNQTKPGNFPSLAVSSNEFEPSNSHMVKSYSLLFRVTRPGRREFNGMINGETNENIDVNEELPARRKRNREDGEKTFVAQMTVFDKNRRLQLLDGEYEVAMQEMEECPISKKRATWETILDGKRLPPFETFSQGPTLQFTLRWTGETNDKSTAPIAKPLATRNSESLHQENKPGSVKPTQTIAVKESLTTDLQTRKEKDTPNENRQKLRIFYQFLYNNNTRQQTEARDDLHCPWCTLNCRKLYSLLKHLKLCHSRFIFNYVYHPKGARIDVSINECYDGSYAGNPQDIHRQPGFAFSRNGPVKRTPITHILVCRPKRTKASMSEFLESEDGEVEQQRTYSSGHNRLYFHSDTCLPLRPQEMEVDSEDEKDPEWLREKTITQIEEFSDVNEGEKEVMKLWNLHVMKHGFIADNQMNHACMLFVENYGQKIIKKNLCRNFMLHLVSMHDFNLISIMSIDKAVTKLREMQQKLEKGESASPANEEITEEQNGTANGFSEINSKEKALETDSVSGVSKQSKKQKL
# T1 sequence (Q09028 whole entry partner): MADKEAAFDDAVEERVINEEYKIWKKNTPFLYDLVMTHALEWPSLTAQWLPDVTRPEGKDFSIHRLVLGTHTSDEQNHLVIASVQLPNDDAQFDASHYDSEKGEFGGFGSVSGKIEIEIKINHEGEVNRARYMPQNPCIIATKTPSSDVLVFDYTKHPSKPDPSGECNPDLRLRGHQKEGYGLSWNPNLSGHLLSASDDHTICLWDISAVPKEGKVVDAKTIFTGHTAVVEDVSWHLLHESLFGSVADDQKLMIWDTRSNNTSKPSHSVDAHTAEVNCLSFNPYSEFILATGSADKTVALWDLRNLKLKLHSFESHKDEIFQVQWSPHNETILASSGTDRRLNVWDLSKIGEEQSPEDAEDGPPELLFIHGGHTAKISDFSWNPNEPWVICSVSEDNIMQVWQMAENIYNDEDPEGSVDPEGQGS
# T1 sequence (Q6ZN18 whole entry partner): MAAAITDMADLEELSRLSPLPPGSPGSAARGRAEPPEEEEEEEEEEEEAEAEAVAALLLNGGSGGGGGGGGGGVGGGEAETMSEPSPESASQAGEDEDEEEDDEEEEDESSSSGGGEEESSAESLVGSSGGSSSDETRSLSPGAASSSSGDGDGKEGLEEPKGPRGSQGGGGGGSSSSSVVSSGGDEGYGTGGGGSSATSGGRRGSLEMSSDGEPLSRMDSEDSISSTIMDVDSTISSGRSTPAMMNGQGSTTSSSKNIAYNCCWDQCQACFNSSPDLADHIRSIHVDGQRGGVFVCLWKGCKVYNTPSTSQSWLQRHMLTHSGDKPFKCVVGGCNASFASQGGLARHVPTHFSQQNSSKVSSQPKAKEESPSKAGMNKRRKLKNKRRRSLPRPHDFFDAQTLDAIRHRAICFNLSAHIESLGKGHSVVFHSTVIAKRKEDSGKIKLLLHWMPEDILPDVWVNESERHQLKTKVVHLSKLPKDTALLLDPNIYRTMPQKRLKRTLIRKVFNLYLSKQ
compound,measurement,value
"CC[C@@H](c1sc2c(c1C)C(=O)N(Cc1c(C)cc(C)[nH]c1=O)CC2)C1CCN(Cc2ccccn2)CC1 [Example 1, (R)-5-((4,6-dimethyl-2-oxo-1,2-dihydropyridin-3-yl)methyl)-3-methyl-2-(1-(1-(pyridin-2-ylmethyl)piperidin-4-yl)propyl)-6,7-dihydrothieno[3,2-c]pyridin-4(5H)-one]",pIC50,≥ 8.00
"CC[C@@H](c1sc2c(c1C)C(=O)N(Cc1c(C)cc(C)[nH]c1=O)CC2)C1CCN(Cc2ccccc2)CC1 [Example 2, (R)-2-(1-(1-Benzylpiperidin-4-yl)propyl)-5-((4,6-dimethyl-2-oxo-1,2-dihydropyridin-3-yl)methyl)-3-methyl-6,7-dihydrothieno[3,2-c]pyridin-4(5H)-one]",pIC50,≥ 8.00
"CC[C@@H](c1sc2c(c1C)C(=O)N(Cc1c(C)cc(C)[nH]c1=O)CC2)C1CCN(Cc2ccncc2)CC1 [Example 3, (R)-5-((4,6-Dimethyl-2-oxo-1,2-dihydropyridin-3-yl)methyl)-3-methyl-2-(1-(1-(pyridin-4-ylmethyl)piperidin-4-yl)propyl)-6,7-dihydrothieno[3,2-c]pyridin-4(5H)-one]",pIC50,≥ 8.00
"CC[C@@H](c1sc2c(c1C)C(=O)N(Cc1c(C)cc(C)[nH]c1=O)CC2)C1CCN(Cc2ccc(Cl)cn2)CC1 [Example 4, (R)-2-(1-(1-((5-Chloropyridin-2-yl)methyl)piperidin-4-yl)propyl)-5-((4,6-dimethyl-2-oxo-1,2-dihydropyridin-3-yl)methyl)-3-methyl-6,7-dihydrothieno[3,2-c]pyridin-4(5H)-one]",pIC50,≥ 8.00
"CCC(=C1CCN(Cc2ccnc(OC)c2)CC1)c1scc(C(=O)NCc2c(C)cc(C)[nH]c2=O)c1C [Example 5, N-((4,6-Dimethyl-2-oxo-1,2-dihydropyridin-3-yl)methyl)-5-(1-(1-((2-methoxypyridin-4-yl)methyl)piperidin-4-ylidene)propyl)-4-methylthiophene-3-carboxamide]",pIC50,≥ 8.00
"Cc1cc(C)c(CN2CCCc3sc([C@H](C)C4CCN(Cc5ccccn5)CC4)c(C)c3C2=O)c(=O)[nH]1 [Example 6, (R)-5-((4,6-Dimethyl-2-oxo-1,2-dihydropyridin-3-yl)methyl)-3-methyl-2-(1-(1-(pyridin-2-ylmethyl)piperidin-4-yl)ethyl)-5,6,7,8-tetrahydro-4H-thieno[3,2-c]azepin-4-one]",pIC50,≥ 8.00
"COc1cc(CN2CCC([C@@H](C)c3sc4c(c3C)C(=O)N(Cc3c(C)cc(C)[nH]c3=O)CCC4)CC2)ccn1 [Example 7, (R)-5-((4,6-Dimethyl-2-oxo-1,2-dihydropyridin-3-yl)methyl)-2-(1-(1-((2-methoxypyridin-4-yl)methyl)piperidin-4-yl)ethyl)-3-methyl-5,6,7,8-tetrahydro-4H-thieno[3,2-c]azepin-4-one]",pIC50,≥ 8.00
Cc1cc(C)c(CN2CCCc3sc([C@H](C)C4CCN(Cc5ccc(Cl)cn5)CC4)c(C)c3C2=O)c(=O)[nH]1 [Example 8],pIC50,≥ 8.00
"Cc1cccc(CN2CCC([C@@H](C)c3sc4c(c3C)C(=O)N(Cc3c(C)cc(C)[nH]c3=O)CCC4)CC2)n1 [Example 9, (R)-5-((4,6-Dimethyl-2-oxo-1,2-dihydropyridin-3-yl)methyl)-3-methyl-2-(1-(1-((6-methylpyridin-2-yl)methyl)piperidin-4-yl)ethyl)-5,6,7,8-tetrahydro-4H-thieno[3,2-c]azepin-4-one]",pIC50,≥ 8.00
"Cc1cc(C)c(CN2CCCc3sc([C@H](C)C4CCN(Cc5ccccc5)CC4)c(C)c3C2=O)c(=O)[nH]1 [Example 10, (R)-2-(1-(1-Benzylpiperidin-4-yl)ethyl)-5-((4,6-dimethyl-2-oxo-1,2-dihydropyridin-3-yl)methyl)-3-methyl-5,6,7,8-tetrahydro-4H-thieno[3,2-c]azepin-4-one]",pIC50,≥ 8.00
"COc1cc(CN2CCC([C@@H](C)c3sc4c(c3C)C(=O)N(Cc3c(C)cc(C)[nH]c3=O)CC4)CC2)ccn1 [Example 11, (R)-5-((4,6-Dimethyl-2-oxo-1,2-dihydropyridin-3-yl)methyl)-2-(1-(1-((2-methoxypyridin-4-yl)methyl)piperidin-4-yl)ethyl)-3-methyl-6,7-dihydrothieno[3,2-c]pyridin-4(5H)-one]",pIC50,≥ 8.00
"COc1cccc(CN2CCC([C@@H](C)c3sc4c(c3C)C(=O)N(Cc3c(C)cc(C)[nH]c3=O)CCC4)CC2)n1 [Example 12, (R)-5-((4,6-Dimethyl-2-oxo-1,2-dihydropyridin-3-yl)methyl)-2-(1-(1-((6-methoxypyridin-2-yl)methyl)piperidin-4-yl)ethyl)-3-methyl-5,6,7,8-tetrahydro-4H-thieno[3,2-c]azepin-4-one]",pIC50,≥ 8.00
"Cc1cc(C)c(CN2CCCc3sc([C@H](C)C4CCN(CC5CCCCC5)CC4)c(C)c3C2=O)c(=O)[nH]1 [Example 13, (R)-2-(1-(1-(cyclohexylmethyl)piperidin-4-yl)ethyl)-5-((4,6-dimethyl-2-oxo-1,2-dihydropyridin-3-yl)methyl)-3-methyl-5,6,7,8-tetrahydro-4H-thieno[3,2-c]azepin-4-one]",pIC50,≥ 8.00
"Cc1cc(C)c(CN2CCCc3sc([C@H](C)C4CCN(CC5(C)CCCCC5)CC4)c(C)c3C2=O)c(=O)[nH]1 [Example 14, (R)-5-((4,6-Dimethyl-2-oxo-1,2-dihydropyridin-3-yl)methyl)-3-methyl-2-(1-(1-((1-methylcyclohexyl)methyl)piperidin-4-yl)ethyl)-5,6,7,8-tetrahydro-4H-thieno[3,2-c]azepin-4-one]",pIC50,≥ 8.00
